This passage reports TGI and GI50 results from PubChem BioAssay (NCI).

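Interpolation was linear, between the two tested concentrations surrounding the appropriate level; five concentrations were tested over 48 hours in 96-well plates. GI50: concentration for 50% inhibition of growth. The concentration for full growth arrest is given as TGI.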

Test systems include NCI-H23 lung; MCF7 breast; M19-MEL melanoma; MOLT-4 leukemia; DLD-1 colon; RPMI-8226 leukemia; BT-549 breast; MALME-3M melanoma; U251 CNS; HCC-2998 colon.
Assay in all cases: NCI tumour cell line growth inhibition, 48 h

Regarding `NCCSSCCN`, the TGI with NCI-H23 lung, in the assay with MCF7 breast, with M19-MEL melanoma, in the assay with MOLT-4 leukemia, with DLD-1 colon and in the assay on RPMI-8226 leukemia was > 100 µM in each case. The TGI with BT-549 breast, with MALME-3M melanoma, with U251 CNS and with HCC-2998 colon was > 100 µM throughout.

As for `CN(C)CCNc1ccc(CO)c2sc3ccc(O)cc3c(=O)c12`, the TGI is 4.14 µM in the assay with NCI-H23 lung; 15.9 µM with M19-MEL melanoma; > 21.7 µM in the assay on MOLT-4 leukemia; 18.6 µM in the assay on DLD-1 colon; 12.8 µM with RPMI-8226 leukemia; 8.93 µM in the assay with BT-549 breast. Also, the TGI in the assay on MALME-3M melanoma is 9.81 µM; with U251 CNS, 7.46 µM; with HCC-2998 colon, 7.4 µM.

Regarding `CCC[CH2][Sn]([Cl])([Cl])[CH2]CCC`, the GI50 is 0.62 µM with NCI-H23 lung; 0.356 µM in the assay with MOLT-4 leukemia; 0.649 µM with DLD-1 colon; 0.198 µM in the assay on RPMI-8226 leukemia; 0.371 µM in the assay on MALME-3M melanoma; 0.472 µM in the assay on U251 CNS. Moreover, in the assay on HCC-2998 colon, the GI50 is 1.1 µM. For the same molecule, the TGI with NCI-H23 lung was 2.21 µM; in the assay on M19-MEL melanoma it was 2.21 µM; in the assay with MOLT-4 leukemia it was 2.53 µM; with DLD-1 colon, 1.99 µM; in the assay with RPMI-8226 leukemia, 0.723 µM; in the assay on MALME-3M melanoma it was 1.44 µM. Also, the TGI is 1.62 µM in the assay on U251 CNS and 2.32 µM with HCC-2998 colon.

As for `CC1=C(C(=O)CC(=O)C(=O)Nc2cc(C)ccc2C)Sc2ccccc2N1`, the TGI in the assay with NCI-H23 lung, in the assay on M19-MEL melanoma, in the assay on MOLT-4 leukemia, in the assay with DLD-1 colon, with RPMI-8226 leukemia and in the assay with MALME-3M melanoma was > 100 µM in each case. Also, the TGI with U251 CNS and with HCC-2998 colon was > 100 µM in each case.

Consider `CC(C)(C)c1cc(C(O)(C(F)(F)F)C(F)(F)F)c2c(c1)C(C(F)(F)F)(C(F)(F)F)OC(C)(C(C)(C)C)N2` (centres undefined), for which the TGI is 7.41 µM in the assay with NCI-H23 lung; 9.73 µM with M19-MEL melanoma; 7.96 µM with MOLT-4 leukemia; > 100 µM in the assay on DLD-1 colon; 9.25 µM in the assay on RPMI-8226 leukemia; 78.2 µM with MALME-3M melanoma. In addition, the TGI amounted to 10.9 µM in the assay on U251 CNS and 93.6 µM in the assay on HCC-2998 colon.

As to `CCc1ccc(NC(=O)NC(=O)c2ccccc2[N+](=O)[O-])cc1Oc1ncc(Cl)cn1`, the TGI in the assay on NCI-H23 lung was > 100 µM; with MCF7 breast it was > 100 µM; with M19-MEL melanoma, > 100 µM; in the assay with MOLT-4 leukemia it was > 100 µM; with DLD-1 colon, > 100 µM; in the assay on RPMI-8226 leukemia, > 4.64 µM. The TGI with BT-549 breast was 35.7 µM; in the assay with MALME-3M melanoma, > 100 µM; in the assay with U251 CNS it was > 100 µM; with HCC-2998 colon, 0.0695 µM.

On to `CCOC(=O)C(=O)Nc1ccccc1C`, for which the TGI in the assay with NCI-H23 lung, in the assay on M19-MEL melanoma, in the assay on MOLT-4 leukemia, in the assay on DLD-1 colon, in the assay on RPMI-8226 leukemia and with MALME-3M melanoma was > 100 µM in each case. For the same molecule, the TGI in the assay with U251 CNS and with HCC-2998 colon was > 100 µM throughout.

As for `CCNC(=O)COc1ccc(Br)cc1Br`, the TGI with NCI-H23 lung, in the assay on M19-MEL melanoma, in the assay on MOLT-4 leukemia, in the assay with DLD-1 colon, with RPMI-8226 leukemia and with MALME-3M melanoma was > 100 µM throughout. Moreover, the TGI in the assay with U251 CNS and in the assay on HCC-2998 colon was > 100 µM throughout.

`C#Cc1cccc(N2C(=O)c3c(c(-c4ccccc4)c(-c4ccc(Cc5ccc(-c6c(-c7ccccc7)c7c(c(-c8ccccc8)c6-c6ccccc6)C(=O)N(c6cccc(C#C)c6)C7=O)cc5)cc4)c(-c4ccccc4)c3-c3ccccc3)C2=O)c1`: the TGI is > 100 µM with NCI-H23 lung; 52 µM with M19-MEL melanoma; > 100 µM in the assay on MOLT-4 leukemia; > 100 µM in the assay on DLD-1 colon; > 100 µM in the assay on RPMI-8226 leukemia; > 100 µM with MALME-3M melanoma. Also, the TGI with U251 CNS and in the assay on HCC-2998 colon was > 100 µM throughout.
